# According to publication PMC10392676, “Structural basis of anti-SARS-CoV-2 activity of HCQ: specific binding to N protein to disrupt its interaction with nucleic acids and LLPS” (QRB Discovery, 2021):
# Columns and labels:
# [1] = target: NTD of SARS-CoV-2 nucleocapsid (N) protein (Severe acute respiratory syndrome coronavirus 2, UniProt P0DTC9); assay: 1H-15N HSQC NMR titration, […] MHz, one-site fit of chemical shift differences, average of […] residues; assay type: binding
# [2] = target: CTD of SARS-CoV-2 nucleocapsid (N) protein (Severe acute respiratory syndrome coronavirus 2, UniProt P0DTC9); assay: as above; assay type: binding
compound,measurement,setting,value
CCN(CCO)CCCC(C)Nc1ccnc2cc(Cl)ccc12 (centres unmarked) [Hydroxychloroquine],Kd,[1],112 ± 32.2 µM
same,Kd,[2],52.1 ± 17.6 µM
